In ChEMBL document CHEMBL1201862, “PubChem BioAssay data set” (2004):
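All cell lines were grown in 96-well plates and treated with compound for 48 hours. GI50 marks 50% less growth.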 Active and inactive are the calls of the source. No stated cut-off is given here; in the data, active = GI50 up to about 1.1 µM and inactive = higher.

How the values were obtained:
Experiment in all cases: DTP human tumour cell line panel, 48 h
SK-MEL-2 = system: SK-MEL-2
CCRF-CEM = system: CCRF-CEM
NCI-H522 = system: NCI-H522
SN12C = system: SN12C
EKVX = system: EKVX
IGROV-1 = system: IGROV-1
HOP-62 = system: HOP-62
RPMI-8226 = system: RPMI-8226
NCI-H23 = system: NCI-H23
NCI/ADR-RES = system: NCI/ADR-RES
HCT-116 = system: HCT-116
SK-OV-3 = system: SK-OV-3
HT-29 = system: HT-29
SF-268 = system: SF-268
SNB-75 = system: SNB-75
MDA-N = system: MDA-N
M14 = system: M14
T47D = system: T47D
DU-145 = system: DU-145
TK-10 = system: TK-10

## CC(=O)OCc1cc(=O)n(C)c2c3c4c(cc12)c(C)cc(=O)n4CO3
SK-MEL-2
  GI50: 1.75 µM (inactive)
CCRF-CEM
  GI50: 0.853 µM (active)
NCI-H522
  GI50: 0.711 µM (active)
SN12C
  GI50: 1.66 µM (inactive)
EKVX
  GI50: 2.44 µM (inactive)
IGROV-1
  GI50: 1.21 µM (inactive)
HOP-62
  GI50: 1.2 µM (inactive)
RPMI-8226
  GI50: 1.51 µM (inactive)
NCI-H23
  GI50: 1.68 µM (inactive)
NCI/ADR-RES
  GI50: 1 µM (active)
HCT-116
  GI50: 0.367 µM (active)
SK-OV-3
  GI50: 3.56 µM (inactive)
HT-29
  GI50: 1.49 µM (inactive)
SF-268
  GI50: 0.782 µM (active)
SNB-75
  GI50: 1.91 µM (inactive)

## COc1ccc(/C(C)=N/NC(=S)N(C)C)c(O)c1
SK-MEL-2
  GI50: 14.4 µM (inactive)
CCRF-CEM
  GI50: 4.49 µM (inactive)
MDA-N
  GI50: 16 µM (inactive)
M14
  GI50: 2.72 µM (inactive)
NCI-H522
  GI50: 12.9 µM (inactive)
SN12C
  GI50: 11.7 µM (inactive)
T47D
  GI50: 7.48 µM (inactive)
EKVX
  GI50: 5.41 µM (inactive)
IGROV-1
  GI50: 4.31 µM (inactive)
HOP-62
  GI50: 5.61 µM (inactive)
RPMI-8226
  GI50: 7.74 µM (inactive)
NCI-H23
  GI50: 8.11 µM (inactive)
HCT-116
  GI50: 6.95 µM (inactive)
SK-OV-3
  GI50: 3.84 µM (inactive)
HT-29
  GI50: 3.8 µM (inactive)
SF-268
  GI50: 12 µM (inactive)
SNB-75
  GI50: 43.8 µM (inactive)
DU-145
  GI50: 11.5 µM (inactive)

## Cn1c(/C=C/CO)c(CO)c2c1C(=O)C=C(N1CC1)C2=O [APAZIQUONE]
SK-MEL-2
  GI50: < 0.01 µM (active)
CCRF-CEM
  GI50: 0.184 µM (active)
NCI-H522
  GI50: 0.0102 µM (active)
SN12C
  GI50: < 0.01 µM (active)
EKVX
  GI50: 0.0463 µM (active)
IGROV-1
  GI50: 0.0244 µM (active)
HOP-62
  GI50: < 0.01 µM (active)
RPMI-8226
  GI50: 0.0172 µM (active)
NCI/ADR-RES
  GI50: < 0.01 µM (active)
HCT-116
  GI50: 0.0109 µM (active)
SK-OV-3
  GI50: < 0.0134 µM (active)
HT-29
  GI50: < 0.01 µM (active)
SF-268
  GI50: 0.0137 µM (active)
SNB-75
  GI50: < 0.01 µM (active)

## C1=Nc2ccccc2Cn2nncc21
SK-MEL-2
  GI50: 78.2 µM (inactive)
CCRF-CEM
  GI50: 49.9 µM (inactive)
TK-10
  GI50: > 100 µM (inactive)
M14
  GI50: 67.3 µM (inactive)
NCI-H522
  GI50: 32.7 µM (inactive)
SN12C
  GI50: > 100 µM (inactive)
EKVX
  GI50: 98.2 µM (inactive)
IGROV-1
  GI50: 67.5 µM (inactive)
HOP-62
  GI50: > 100 µM (inactive)
RPMI-8226
  GI50: > 100 µM (inactive)
NCI-H23
  GI50: > 100 µM (inactive)
HCT-116
  GI50: 35.7 µM (inactive)
SK-OV-3
  GI50: > 100 µM (inactive)
HT-29
  GI50: 45.6 µM (inactive)
SF-268
  GI50: > 100 µM (inactive)

## Cc1cc(C)c(S(=O)(=O)N(CCCN)OCCCN)c(C)c1
SK-MEL-2
  GI50: > 100 µM (inactive)
CCRF-CEM
  GI50: > 100 µM (inactive)
MDA-N
  GI50: > 100 µM (inactive)
TK-10
  GI50: > 100 µM (inactive)
M14
  GI50: 31.4 µM (inactive)
SN12C
  GI50: > 100 µM (inactive)
T47D
  GI50: > 100 µM (inactive)
EKVX
  GI50: > 100 µM (inactive)
IGROV-1
  GI50: > 100 µM (inactive)
HOP-62
  GI50: 6.52 µM (inactive)
RPMI-8226
  GI50: > 100 µM (inactive)
NCI-H23
  GI50: > 100 µM (inactive)
NCI/ADR-RES
  GI50: > 100 µM (inactive)
HCT-116
  GI50: > 100 µM (inactive)
SK-OV-3
  GI50: > 100 µM (inactive)
HT-29
  GI50: > 100 µM (inactive)
SF-268
  GI50: > 100 µM (inactive)
SNB-75
  GI50: > 100 µM (inactive)
DU-145
  GI50: > 100 µM (inactive)

## CO/N=C\c1cc(O)c(O)c(/C=N/OC)c1
SK-MEL-2
  GI50: > 100 µM (inactive)
CCRF-CEM
  GI50: 16 µM (inactive)
MDA-N
  GI50: 64.4 µM (inactive)
TK-10
  GI50: 86.7 µM (inactive)
M14
  GI50: 33.3 µM (inactive)
NCI-H522
  GI50: 14.1 µM (inactive)
SN12C
  GI50: 12.8 µM (inactive)
T47D
  GI50: 26.1 µM (inactive)
EKVX
  GI50: 47.4 µM (inactive)
IGROV-1
  GI50: 27.4 µM (inactive)
HOP-62
  GI50: 51.4 µM (inactive)
RPMI-8226
  GI50: 12.5 µM (inactive)
NCI-H23
  GI50: 26.9 µM (inactive)
NCI/ADR-RES
  GI50: 30.6 µM (inactive)
HCT-116
  GI50: 23.8 µM (inactive)
SK-OV-3
  GI50: 29.1 µM (inactive)
HT-29
  GI50: 40.5 µM (inactive)
SF-268
  GI50: 10.9 µM (inactive)
SNB-75
  GI50: 87.5 µM (inactive)
DU-145
  GI50: 39.5 µM (inactive)
